# Laboratory results taken from patent US20230286973A1, “PROTEIN SECRETION INHIBITORS” (KEZAR LIFE SCIENCES, priority 2020, published 2023).
# Read-outs that look alike come from different tables or passages of the source.
# Legend:
# [1] = Liver Microsome Stability Assay (mouse); settings: mouse liver microsomes, with NADPH, 1.0 uM compound
# Method: (§2) Stability of a compound was assessed in the presence of liver microsomes from various sources—mouse, rat, monkey and human liver microsomes. 1.0 uM compound, 0.4% DMSO in 0.1 M Potassium Phosphate with 1.0 mg/mL liver microsomes, were incubated at 37° C. with or without 1 mM NADPH. The samples were quenched at 0, and 30 minutes.
# [2] = tested on: IL-2-FL/Gaussia Luciferase; test: Dox Induced IL2-FL-Gluc Assay; format: cell-based; settings: for IC50: 24 hr Dox induction, 293FRT/TO cells, read-out: 24 hr Dox Inducible IL2FLGluc 293FRT/TO: Mean IC50; for 24 hr Dox Inducible IL2FLGluc 293FRT/TO: IL2/PD1: ratio of IL2FLGluc IC50 to PD1ssGluc IC50
# In short: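 Stable Flp-In 293 T-REx cells carrying doxycycline-inducible full-length IL-2 (aa 1-153) fused to Gaussia luciferase, plated the day before assay. Compound dilutions added in medium containing doxycycline, incubated at 37 °C, 5% CO2. Undefined stereocentres mean data refer to stereoisomer mixtures.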
# [3] = Liver Microsome Stability Assay (monkey); settings: monkey liver microsomes, with NADPH, 1.0 uM compound
# Method: as §2
# [4] = tested on: multiple myeloma cell line NCI-H929; test: H929 Cell Viability Assay; format: cell-based, human; settings: Homo sapiens, NCI-H929, 48 h, NCI-H929 cells, Celltiter-Glo
# In short: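 NCI-H929 cells in RPMI 1640 with 10% FBS were treated with compound dilutions for 48 h at 37° C, 5% CO2. Viability was read by CellTiter-Glo luminescence. Undefined stereocentres denote stereoisomer mixtures.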
# [5] = tested on: PD1-ss+10aa/Gaussia Luciferase; test: Dox-Induced PD1-ss-Gluc Assay; format: cell-based; settings: 24 hr Dox induction, 293FRT/TO cells, read-out: 24 hr Dox Inducible PD1ssGluc 293FRT/TO: Mean IC50
# In short: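 Compounds were added in DMSO/media with doxycycline and incubated at 37 °C, 5% CO2, on 293 T-REx cells plated one day earlier. These cells stably express, under tetracycline-regulated control, a Gaussia luciferase fused to the PD1 signal peptide plus 10 residues. Structures drawn without stereochemistry were tested as stereoisomer mixtures.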
# [6] = tested on: multiple myeloma cell line U266B1; test: U266 Cell Viability Assay; format: cell-based, human; settings: Homo sapiens, U-266, 48 h, U266B1 cells, Celltiter-Glo
# In short: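 U266B1 multiple myeloma cells in RPMI 1640/10% FBS were treated with compound dilutions for 48 h at 37 °C, 5% CO2. Viability was measured by CellTiter-Glo luminescence; compounds drawn without stereochemistry were tested as stereoisomer mixtures.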
# [7] = Liver Microsome Stability Assay (human); settings: human liver microsomes, with NADPH, 1.0 uM compound
# Method: as §2
# [8] = tested on: HER3-ss+4aa/Gaussia Luciferase; test: Dox-Induced Her3-ss-Gluc Assay; format: cell-based; settings: 24 hr Dox induction, 293FRT/TO cells, read-out: 24 hr Dox Inducible Her3(ss + 4)Gluc 293FRT/TO: Mean IC50
# Source text: Flp-In 293 T-REx™ cells were transfected with pcDNA™5/FRT/TO plasmid inserted with cDNA encoding Gaussia Luciferase fused to the 3′ end of cDNA encoding HER3 signal sequence plus 4 amino acids (N-[…]-C) (SEQ ID NO: 2). Transfected cells were selected for resistance to the selectable markers Hygromycin and Blasticidin to create a stable cell line that contained the HER3-ss+4aa/Gaussia Luciferase cDNA insert whose expression was regulated under the T-REx™ system. The day before assay, cells were trypsinized and plated in 384-well tissue culture plates. The next day, compound dilutions in DMSO/media containing doxycycline were added to the wells and incubated at 37° C., 5% CO2.
# (§1) For chemical structures that include one or more stereoisomers, but are illustrated without indicating stereochemistry, the assay data refers to a mixture of stereoisomers.
# [9] = tested on: TNFα-FL/Gaussia Luciferase; test: Dox Induced TNFα-FL-Gluc Assay; format: cell-based; settings: for IC50: 24 hr Dox induction, 293FRT/TO cells, read-out: 24 hr Dox Inducible TNFaFLGluc 293FRT/TO: Mean IC50; for 24 hr Dox Inducible TNFaFLGluc 293FRT/TO: TNF/PD1: ratio of TNFaFLGluc IC50 to PD1ssGluc IC50
# Source text: Flp-In 293 T-REx™ cells were transfected with pcDNA™5/FRT/TO plasmid inserted with cDNA encoding Gaussia Luciferase fused to the 3′ end of cDNA encoding full length TNFα (amino acids 1-233). Transfected cells were selected for resistance to the selectable markers Hygromycin and Blasticidin to create a stable cell line that contained the TNFα-FL/Gaussia Luciferase cDNA insert whose expression was regulated under the T-REx™ system. The day before assay, cells were trypsinized and plated in 384-well tissue culture plates. The next day, compound dilutions in DMSO/media containing doxycycline were added to the wells and incubated at 37° C., 5% CO2.
# as §1
# [10] = Liver Microsome Stability Assay (rat); settings: rat liver microsomes, with NADPH, 1.0 uM compound
# Method: as §2
# [11] = '<=>' given where both are I.A.
Liver Microsome Stability (Multiple Species): Mouse - % Remaining after 30 min w/NADPH [1] [%],IC50 [2] [nM],Liver Microsome Stability (Multiple Species): Monkey - % Remaining after 30 min w/NADPH [3] [%],EC50 [4] [nM],IC50 [5] [nM],EC50 [6] [nM],Liver Microsome Stability (Multiple Species): Human - % Remaining after 30 min w/NADPH [7] [%],IC50 [8] [nM],IC50 [9] [nM],Liver Microsome Stability (Multiple Species): Rat - % Remaining after 30 min w/NADPH [10] [%],IC50 ([2]; mean) [nM],IC50 ([5]; mean) [nM],IC50 ([8]; mean) [nM],IC50 ([9]; mean) [nM],Structure (SMILES),24 hr Dox Inducible IL2FLGluc 293FRT/TO: IL2/PD1 [2],24 hr Dox Inducible TNFaFLGluc 293FRT/TO: TNF/PD1 [9],"24 hr Dox Inducible IL2FLGluc 293FRT/TO: IL2/PD1 [2, 11]","24 hr Dox Inducible TNFaFLGluc 293FRT/TO: TNF/PD1 [9, 11]"
79.6,3.22,22.4,60.1,1.84,> 25000,72.8,3.62,19.1,38.1,–,–,–,–,"CCc1ccc(N2CCC[C@@H]2c2csc(NC(=O)c3cccn3Cc3ccnc(F)c3)n2)cc1 [Compound A77, (R)-N-(4-(1-(4-ethylphenyl)pyrrolidin-2-yl)thiazol-2-yl)-1-((2-fluoropyridin-4-yl)methyl)-1H-pyrrole-2-carboxamide]",1.8,10.4,–,–
27.4,25,2.34,346,14.8,> 25000,43,26.5,148,19.7,–,–,–,–,"O=C(Nc1nc([C@H]2CCCN2c2ccc(OC3CCN(C(=O)C(F)F)CC3)cc2)cs1)c1cccn1Cc1ccnc(F)c1 [Compound A91, (R)-N-(4-(1-(4-((1-(2,2-difluoroacetyl)piperidin-4-yl)oxy)phenyl)pyrrolidin-2-yl)thiazol-2-yl)-1-((2-fluoropyridin-4-yl)methyl)-1H-pyrrole-2-carboxamide]",1.7,10,–,–
0.54,–,0.11,> 25000,–,> 25000,0.91,–,–,0.53,> 25000,> 25000,> 25000,> 25000,"CC(=O)N(C)C/C=C/c1csc(NC(=O)c2cccn2Cc2ccncc2)n1 [Compound E15, (E)-N-(4-(3-(N-methylacetamido)prop-1-en-1-yl)thiazol-2-yl)-1-(pyridin-4-ylmethyl)-1H-pyrrole-2-carboxamide]",–,–,1,–
60.5,963,29.6,16300,323,> 25000,20.9,660,6870,59.4,–,–,–,–,"O=C(Nc1nc([C@@H]2CCCN2c2ccc(C(F)(F)F)cc2)cs1)c1cccn1Cc1ccnc(F)c1 [Compound A142, (S)-1-((2-fluoropyridin-4-yl)methyl)-N-(4-(1-(4-(trifluoromethyl)phenyl)pyrrolidin-2-yl)thiazol-2-yl)-1H-pyrrole-2-carboxamide]",3,21.3,–,–
4.16,4.11,2.39,79,3,> 25000,3.12,6.51,52,9.73,–,–,–,–,"CC(=O)Nc1ccc(N2CCC[C@@H]2c2csc(NC(=O)c3cccn3Cc3ccncc3)n2)cc1 [Compound A46, (R)-N-(4-(1-(4-acetamidophenyl)pyrrolidin-2-yl)thiazol-2-yl)-1-(pyridin-4-ylmethyl)-1H-pyrrole-2-carboxamide]",1.4,17.3,–,–
26.5,> 25000,11.3,> 25000,6680,> 25000,6.13,> 25000,> 25000,8.69,–,–,–,–,"O=C(Nc1nc(/C=C/c2c[nH]cn2)cs1)c1cccn1Cc1ccncc1 [Compound B42, (E)-N-(4-(2-(1H-imidazol-4-yl)vinyl)thiazol-2-yl)-1-(pyridin-4-ylmethyl)-1H-pyrrole-2-carboxamide]",>3.7,>3.74,–,–
23.2,–,0.35,24100,–,> 25000,29.3,–,–,7.64,1260,455,1330,10000,"N#CCCCCn1cccc1C(=O)Nc1nc([C@H]2CCCN2c2ccccc2)cs1 [Compound C1, (R)-1-(4-cyanobutyl)-N-(4-(1-phenylpyrrolidin-2-yl)thiazol-2-yl)-1H-pyrrole-2-carboxamide]",–,–,2.8,22.1
0.23,–,0.19,> 25000,–,> 25000,0.45,–,–,0.83,432,124,213,7890,"O=C(Nc1nc(CCc2coc(-c3ccccc3)n2)cs1)c1cccn1Cc1ccncc1 [Compound E12, N-(4-(2-(2-phenyloxazol-4-yl)ethyl)thiazol-2-yl)-1-(pyridin-4-ylmethyl)-1H-pyrrole-2-carboxamide]",–,–,3.5,63.4
